For one data set, the system named is Gastric Acid Secretion. As to the kind of experiment: Test for the Inhibition of the Gastric Acid Secretion According to Ghosh and Schild. The format is in vivo, male rats (Sprague Dawley SIV 50). As to conditions: rat. As to the method:
3. Test for the Inhibition of the Gastric Acid Secretion According to Ghosh and Schild (Brit. J. Pharmacol. 13 pp 54-61 (1958) The test animals were male rats (Sprague Dawley SIV 50) weighing between 300-450 g. The animals were kept fasting 24 hours before starting the test, water being available ad libitum. The animals were anesthetized with 1.25 g/kg urethane IP. Trachea, vena jugularis, arteria carotis, and oesophagus were exposed, and a fistula placed at the pylorus. Via an oesophagus tube the stomach was perfused with 1/4000 N NaOH at a flow rate of 3 ml/min. By means of the NaOH perfusion the pH of the gastric juice was adjusted to about pH 7 and continuously measured with a measuring electrode. Via the vena jugularis the acid-stimulating substance (carbachol 0.25 μg/kg/min or pentagastrin 1 μg/kg/min) was infused.

Data set [1] concerns Indomethacin-Induced Ulcer. In words: Indomethacin-Induced Ulcer. The format is in vivo, male rats (Sprague Dawley SIV 50). The following applies: rat. The protocol: 1. Indomethacin-Induced Ulcer Test animals were male rats (Sprague Dawley SIV 50) weighing between 150-200 g. The animals were kept fasting 24 hours before starting the test, drinking water being available ad libitum. The animals were alloted to three groups, each group comprising ten rats. […] Five hours following administration the animals were killed with CO2 gas, the stomachs removed and opened along the greater curvature. After measuring the pH value the stomach was tested for ulcerations under a stereo magnifying glass. The method described by Chaumontet, et al. Arzneimittelforschung/Drug Research 28 (II) pp 2119-2121 (1978) was used to rate the ulcerations and calculate the ulcer index (UI). The effect of the substances was rendered as the percentage inhibition of the ulcers caused by indomethacin in comparison to the untreated reference group.

A further data set deals with Cold-Stress Ulcer. As to the kind of experiment: Cold-Stress Ulcer. The format is in vivo, male rats (Sprague Dawley SIV 50). The following applies: rat. As to the method: 2. Cold-Stress Ulcer Test animals were male rats (Sprague Dawley SIV 50) weighing between 110 and 150 g. The animals were kept fasting 24 hours before starting the test, drinking water being available ad libitum. […] Immediately after administration of the substances the animals were anesthetized with […] on their backs, fixed with adhesive tapes to wooden boards. Thus rendered immobile the animals were put into a permanently lit room, ambient temperature +15° C., relative humidity 50-60%, for 14 hours. After this time of exposure the rats were killed with CO2, the stomachs removed and opened along the greater curvature. After measuring the pH value the gastric mucosa was tested for ulcerations under a stereo magnifying glass. The ulcerations were rated and the ulcer index (UI) calculated as described for test 1, the effect of the substances being expressed as the percentage inhibition of the ulcer formation in comparison to the untreated control group.

The subject of the next data set is gastric mucous membrane. The following applies: cited from earlier work.
The mark [2] stands for this setting: 125 mg/kg (dose column: i.g.; method: duodenal catheter).
[3] abbreviates: 250 mg/kg (dose column: i.g.; method: duodenal catheter).

In the case of `CN(C)CCCSc1nc(-c2ccccc2)nc2c1Cc1ccccc1O2` [Compound (1), 4-(3-dimethylaminopropylthio)-2-phenyl-5H-[1]benzopyrano[2,3-d]pyrimidine], the “Antisecretion (Gosh + Schild Model)” value with Gastric Acid Secretion (setting [2]) and in the data set on Gastric Acid Secretion (setting [3]) was “No effect” each time. Moreover, the “Protective Action in %, "Indomethacin" ulcer model” value came out at 88% in data set [1] (125 mg/kg i.g.) and 95% in data set [1] (250 mg/kg i.g.). For the same molecule, the “Protective Action in %, "Stress" ulcer model” value with Cold-Stress Ulcer (125 mg/kg i.g.) is on record as 70%; in the data set with Cold-Stress Ulcer (250 mg/kg i.g.) it was 86%.

On to `Cc1ccc(-c2nc3c(c(SCCCN4CCOCC4)n2)Cc2ccccc2O3)cc1` [Compound (26), 2-(4-methylphenyl)-4-(3-morpholinopropylthio)-5H-[1]benzopyrano[2,3-d]pyrimidine], for which the “Antisecretion (Gosh + Schild Model)” value in the data set with Gastric Acid Secretion (setting [3]) is given as “No effect”. In addition, in data set [1] (250 mg/kg i.g.), the “Protective Action in %, "Indomethacin" ulcer model” value is on record as 50%.

On to `CNCCCSc1nc(-c2ccc(C)cc2)nc2c1Cc1ccccc1O2` [Compound (27a), 4-(3-methylaminopropylthio)-2-(4-methylphenyl)-5H-[1]benzopyrano[2,3-d]pyrimidine], for which the “Antisecretion (Gosh + Schild Model)” value in the data set with Gastric Acid Secretion (setting [3]) was “No effect”. For the same molecule, the “Protective Action in %, "Indomethacin" ulcer model” value in data set [1] (250 mg/kg i.g.) is on record as 94%.

Regarding `Cc1ccc(-c2nc3c(c(SCCCN(C)C)n2)Cc2ccccc2O3)cc1` [Compound (16)], the “Antisecretion (Gosh + Schild Model)” value with Gastric Acid Secretion (setting [2]) and in the data set with Gastric Acid Secretion (setting [3]) was “No effect” in each case. Besides, the “Protective Action in %, "Indomethacin" ulcer model” value in data set [1] (125 mg/kg i.g.) came out at 83%; in data set [1] (250 mg/kg i.g.), 99.5%. The “Protective Action in %, "Stress" ulcer model” value with Cold-Stress Ulcer (125 mg/kg i.g.) was found to be 72%.

For `CN/C(=N/CCSCc1nc[nH]c1C)NC#N` [Cimetidine, reference compound], in the data set with Gastric Acid Secretion (5 mg/kg i.v., after 35 min), the “Antisecretion (Gosh + Schild Model): pH reached” value is 7.9 pH. Besides, in the data set on Gastric Acid Secretion (5 mg/kg i.v.), the “Antisecretion (Gosh + Schild Model): time after which pH 7.9 was reached” value is reported as 35 min. For the same molecule, the “Protective Action in %, "Indomethacin" ulcer model” value stood at 80% in data set [1] (100 mg/kg i.g.), 89% in data set [1] (200 mg/kg i.g.) and 39% in data set [1] (3 × 100 mg/kg i.g.). Also, the undesired side effects result in the data set on gastric mucous membrane (general statement in therapy) is “undesired CNS and other side effects”. The “changes of the gastric mucous membrane / relapse ulcers” value with gastric mucous membrane (long-term treatment, following discontinuation) is “changes of the gastric mucous membrane found under long-term treatment”. In addition, the “Protective Action in %, "Stress" ulcer model” value turned out to be 53% with Cold-Stress Ulcer (100 mg/kg i.g.) and 54% in the data set with Cold-Stress Ulcer (200 mg/kg i.g.).

The values are drawn from patent publication US4578380A, “5H-[1]benzopyrano[2,3-d]pyrimidine derivatives useful for controlling lesions of the gastric and duodenal mucous membranes” (Warner-Lambert Company, priority 1983, dated 1986).
